Laboratory results published in US11135290B2, “Fucosyllactose as breast milk identical non-digestible oligosaccharide with new functional benefit” (N.V. Nutricia, priority 2009, dated 2021).
Marks after values point to notes of the source that are not given here.

Experiments:
Format in all cases: in vivo, C57BL/6 mice
[1] = test system: YAC-1 target cells; test: NK cell cytotoxicity in spleen cell suspensions, 51Cr release assay; conditions: mouse splenocytes, dietary supplementation
From the text: (§1) 6-8 Weeks old female C57BL/6 mice (Charles River) received semi-purified AIN-93G-based diets (Research Diet Service, Wijk bij Duurstede, the Netherlands), comprising
1) 2 wt % beta-galacto-oligosaccharide (GOS; source Vivinal GOS, Borculo Domo), fructo-oligosaccharide (FOS; source RaftilineHP, Orafti) and galacturonic acid oligosaccharide (Source AOS) in a 9:1:1.1 ratio. AOS are produced from pectin (Stidzucker AG, Mannheim, Germany), with a DP of 1-20. It consists of approximately 75% galacturonic acid oligomers, based on total weight;
2) 1 wt % lactoneotetraose (LNnT),
3) 1 wt % 3′-sialyl lactose (3′-SL), or
4) 1 wt % 2′-fucosyllactose (2′-FL).
(§2) All groups were compared to the unsupplemented control diet. Dietary supplementation started 14 days before the first vaccination and lasted until the end of the experiment, 31 days after the first vaccination.
Vaccination experiments were performed using Influvac (Solvay Pharmaceuticals, Weesp, the Netherlands) from season 2005/2006. […] The percentage of specific ^51Cr release was calculated as the percentage of specific lysis=(experimental release−spontaneous release)/(total detergent release−spontaneous release)×100. […]
(§3) Statistical analysis was performed using GraphPadPrism software. Statistical differences between test and control groups were analysed by ANOVA and post hoc Dunnett's test if multiple groups were compared to a single (control) group. […]

[2] = test system: regulatory T cells (Treg); test: Percentage of regulatory T cells (Treg) by flow cytometry; conditions: dietary supplementation, vaccinated mice
Method: All groups were compared to the unsupplemented control diet. Dietary supplementation started 14 days before the first vaccination and lasted until the end of the experiment, 31 days after the first vaccination. […]
The percentage of regulatory T cells (Treg) was determined by flow cytometry (FACSCalibur) using allophycocyanin (APC-)labelled anti-mouse CD3 mAb, Pe-Cy5-labeled anti-mouse CD4 mAb and phycoerythrin (PE)-labelled anti-mouse CD25 mAb in combination with intracellular staining of fluorescein-isotiocyanate (FITC)-labelled Foxp3 mAb, according to the instructions offered by the manufactures (eBiosciences, San Diego, Calif.).

[3] = test system: DTH response; test: DTH response after Influvac vaccination; conditions: dietary supplementation, vaccinated mice; TH1-dependent parameter
Method: as §1, §2
Vaccination experiments were performed using Influvac (Solvay Pharmaceuticals, Weesp, the Netherlands) from season 2005/2006. The mice received a primary vaccination and a booster vaccination, consisting of a subcutaneous (sc) injection of a 1:1 mix of vaccine and adjuvant in a total volume of 100 μl. The booster vaccination was given at 21 days after the primary vaccination. The experiments ended 10 days after booster vaccination. Blood samples were taken at the end of the experiment. […] The percentage of specific ^51Cr release was calculated as the percentage of specific lysis=(experimental release−spontaneous release)/(total detergent release−spontaneous release)×100. […]
as §3

Row | Molecule | NK cell activity, % lysis At E:T ratio 1:50 [1] | Treg percentage (s.e.m.) [2] | DTH response compared with control-fed animals [3]
1 | lactoneotetraose [LNnT] | 2.14 % lysis | 3.2 (0.2) percentage | significant increase
2 | CC(=O)N[C@H]1[C@H]([C@H](O)[C@H](O)CO)O[C@@](O[C@H]2[C@@H](O)[C@@H](CO)O[C@@H](O[C@H]3[C@H](O)[C@@H](O)C(O)O[C@@H]3CO)[C@@H]2O)(C(=O)O)C[C@@H]1O (stereo partly drawn) [3′-SL, 3′-sialyl lactose] | 1.93 % lysis | 2.8 (0.2)* percentage | significant increase
